Patent publication US20260285847A1, “SYMMETRIC AMINOINDOLE-LINKED TRIAZINE FOR A DUAL EFFECT ON ALPHA-SYNUCLEIN AND TAU ISOFORM 2N4R FIBRILLIZATION” (Purdue Research Foundation, priority 2023, published 2026)
“Also recorded” adds a separate entry of the source.

What was measured:
alpha-synuclein (α-syn) = biological target: T1, alpha-synuclein (α-syn) (Homo sapiens, UniProt P37840); experiment: Thioflavin T (ThT) fluorescence assay of α-syn fibril formation; type: biochemical; settings: compound 100 μM
T1 construct: purchased rPeptide
Experimental: Thioflavin fluorescence assays. Thioflavin fluorescence assays were used to monitor fibril formation of recombinant α-syn, tau isoform 2N4R, treated with control DMSO and different compounds. Kinetics of α-syn fibrillization were performed using thioflavin T (ThT) as published previously.^32′ ^37 The fluorescence emission experiments were performed with the excitation and emission wavelengths set at 440 and 485 nm, respectively, with a Synergy HT multi-mode microplate reader (BioTek, Winooski, VT). Samples were measured in three replicates and the experiments were repeated three times using at least two different stock solutions. For each time point, arbitrary units of fluorescence were calculated from the mean values normalized against the maximum value in each completed assay. All results contained in FIG. 1 were presented as mean±SEM.
FIG. 1. Chemical structure, physicochemical descriptors, and the effect of compounds on alpha-synuclein (α-syn) aggregation measured as fluorescence intensity using ThT assay. TPSA, Log P, and Log D were obtained with SwissADME. BBB and pKa were obtained from the Blood-Brain Barrier Prediction Server (https://www.cbligand.org/BBB/) and Chemaxon, respectively. CNS MPO scores were assessed as published previously, The ThT (%) represent the maximum fluorescence intensity obtained at the plateau phase of the kinetics of fibrillization using 6.25 μM of α-syn. Compounds were tested at 100 μM (molar ratio 1:16). BBB, blood-brain barrier; C log D, calculated distribution coefficient at 7.4; C log P, calculated partition coefficient; CNS MPO, Central Nervous System Multi Parameter Optimization; HBA, Hydrogen Bond Acceptor; HBD, Hydrogen Bond Donor; LR5, Lipinski's rule of five; pKa, negative log of acid dissociation constant; ThT, Thioflavin T; TPSA, Topological polar surface area.

tau isoform 2N4R [1] = biological target: T2, tau isoform 2N4R (Homo sapiens, UniProt P10636); experiment: PICUP cross-linking assay of tau oligomer formation; type: biochemical; settings: compound 50 μM; high molecular weight oligomers around 190 kDa
T2 construct: made in house; host or cells: E. coli BL21(DE3)
Experimental: (§1) Chemical and peptide source. DMSO and thioflavin-T (ThT) were purchased from Alfa Aesar (Ward Hill, MA). Procuration of recombinant α-syn was from rPeptide (WatKinsville, GA). The recombinant p-tau isoform 1N4R was prepared as published previously.^31, 36 Concerning the preparation of tau 2N4R, bacterial expression plasmid consisting of the vector pRK172 carrying a cDNA encoding the human Tau 2N4R isoform was a kind gift of Dr. David Eliezer (Weill Cornell Medicine). For protein expression, E. coli BL21(DE3) cells were transformed with the plasmid and grown in LB media supplemented with ampicillin (100 μg/mL). Protein over-expression was induced by the addition of 1 mM IPTG for 4 h at 37° C., and cells were pelleted by centrifugation at 6,000 g for 15 min at 4° C. The cells were resuspended in lysis buffer (20 mM MES, 400 mM NaCl, 0.2 mM MgCl2, 1 mM EGTA, protease inhibitor cocktail (P8340, Sigma Aldrich), 0.25 mg/mL lysozyme, and 1 μg/mL DNase I, pH 6.8) and lysed by a French press cell disruptor at 4° C., and the lysate was boiled for 20 min. Denatured proteins were pelleted by centrifugation at 30,000 g for 30 min at 4° C., and the supernatant was dialyzed overnight against cation exchange buffer (20 mM MES, 50 mM NaCl, 1 mM MgCl2, 1 mM EGTA, 2 mM DTT, 0.1 mM PMSF, pH 6.8). The dialysate was loaded onto a HiPrep SP HP column, and proteins were eluted with a linear gradient ranging from 50 mM to 1 M NaCl. Fractions containing tau isoform 2N4R were pooled, and the resulting protein solution was dialyzed against PBS (pH 7.4) and stored at −80° C.
PICUP is a technique in which oligomer formation is induced by cross-linking. To induce oligomerization by cross-linking, α-syn (from Rpeptide, LLC) and tau isoform 2N4R were diluted in 10 mM phosphate buffer (pH 7.4) to reach a final concentration of 10 μM. Different compounds were added to the protein solution at a final concentration of 50 μM, resulting in a molar ratio of 1:5. […]

α-syn [2] = biological target: T3, α-syn (Homo sapiens, UniProt P37840); experiment: Transmission electron microscopy (TEM) of α-syn fibrils; type: biochemical; settings: protein 60 μM, compound 600 μM (1:10), 24 hours at 37° C.
T3 construct: purchased rPeptide
Experimental: To confirm the general anti-fibrillar effect of compound 10, transmission electron microscopy (TEM) was used as an orthogonal assay. After incubating recombinant proteins (at 60 μM) with 600 μM compound 10 for 24 hours at 37° C., TEM was utilized to detect fibril formation.^32 A volume of 10 μL was applied on a 400-mesh Formvar-carbon-coated copper grid (Electron Microscopy Sciences, Hatfield, PA). The grids were incubated for 1 minute and washed three times with distilled water. They were carefully air-dried and incubated for 1 minute in a fresh solution of 1% uranyl acetate. Samples were air-dried and observed using a transmission microscope. Visualization of the grids was performed with transmission electron microscopy (JEOL 1400 Flash, Japan). Acquisition of pictures was performed with the following settings: accelerating voltage of 100 kV and magnification of 40k.

[3] = test system: M17D-TR/αS3K::YFP neuroblastoma cells; experiment: α-syn inclusion formation in dox-inducible neuroblastoma cells; type: cell-based
Experimental: The dox-inducible neuroblastoma cell line M17D-TR/αS3K::YFP was used to evaluate the effect of compounds in preventing the formation of inclusion following induction with Dox. Dox-inducible neuroblastoma cells M17D-TR/αS-3K::YFP have been used previously. 96-well plates were used with cellular density of 30,000 cells per well. Compounds were added after 24 h and aS-3K::YFP transgene expression was induced […]. Induction was done by adding 1 μg per mL (final concentration) dox to culture media. Cells were incubated in the Incucyte Zoom 2000 platform (Essen Biosciences) and images (green, bright field) were taken continuously. Endpoint analysis of inclusion formation or growth was performed 48 h after induction (96 h after plating). The Incucyte processing definition ‘Inclusions’ was created as follows: Parameters, Fixed Threshold, Threshold (GCU) 50; Edge Split On, Edge Sensitivity 100; Cleanup, Hole Fill (μm^2): 10, Adjust Size (pixels): 0; Filters, Area (μm^2): max 50, Mean Intensity: min 60, Integrated Intensity: min 2000. […] As described previously for the evaluation of protein expression by SDS-PAGE and Western Blotting in the LiCor system, αS-specific monoclonal antibody 4B12 (Thermofisher, Waltham, MA; 1:1000) and a polyclonal antibody to GAPDH (Sigma-Aldrich, St. Louis, MO, G9545; 1:5000) were used.

tau isoform 2N4R [4] = biological target: T2, tau isoform 2N4R; experiment: TEM of tau isoform 2N4R fibrils; type: biochemical; settings: protein 60 μM, compound 600 μM (1:10), 24 hours at 37° C.
Experimental: as §1
To confirm the general anti-fibrillar effect of compound 10, transmission electron microscopy (TEM) was used as an orthogonal assay. After incubating recombinant proteins (at 60 μM) with 600 μM compound 10 for 24 hours at 37° C., TEM was utilized to detect fibril formation.^32 A volume of 10 μL was applied on a 400-mesh Formvar-carbon-coated copper grid (Electron Microscopy Sciences, Hatfield, PA). The grids were incubated for 1 minute and washed three times with distilled water. […]

tau isoform 2N4R [5] = biological target: T2, tau isoform 2N4R; experiment: ThT fluorescence assay of tau isoform 2N4R fibril formation; type: biochemical; settings: compound 100 μM, tau 2N4R 6 μM, heparin 1.5 μM
Experimental: as §1

α-syn [6] = biological target: T3, α-syn; experiment: PICUP cross-linking assay of α-syn oligomer formation; type: biochemical; settings: compound 50 μM; high molecular weight oligomers around 50 kDa
Experimental: PICUP is a technique in which oligomer formation is induced by cross-linking. To induce oligomerization by cross-linking, α-syn (from Rpeptide, LLC) and tau isoform 2N4R were diluted in 10 mM phosphate buffer (pH 7.4) to reach a final concentration of 10 μM. Different compounds were added to the protein solution at a final concentration of 50 μM, resulting in a molar ratio of 1:5. To confirm the gradual effect of compounds on the inhibition of α-syn oligomerization, compounds were tested at final concentration of 3.125, 6.25, 12.5, 25, and 50 μM. The controls consisted of samples without light exposition, without Ru(bpy) or ammonium persulfate, and without compound (i.e., 0.125% DMSO). The cross-linking reaction was initiated by the addition of 2 μL of Ru(bpy) (300 μM final concentration) and 2 μL ammonium persulfate (6 mM final concentration).^32 Samples were irradiated immediately. Light exposure was of a 1 second duration for α-syn and a 3 second duration for tau isoform 2N4R, with a 53 W (120 V) incandescent lamp installed in a homemade dark-box. Each tube contained a final volume of 20 μL. After irradiation, 8.3 μL of Laemmli loading buffer containing 15% 0-mercaptoethanol was immediately added to the solution, followed by incubation at 95° C. for 10 min. The cross-linked samples were separated on a 16% SDS-PAGE gel and visualized by Coomassie blue staining.

T2 sequence (P10636 1-441 isoform P10636-8): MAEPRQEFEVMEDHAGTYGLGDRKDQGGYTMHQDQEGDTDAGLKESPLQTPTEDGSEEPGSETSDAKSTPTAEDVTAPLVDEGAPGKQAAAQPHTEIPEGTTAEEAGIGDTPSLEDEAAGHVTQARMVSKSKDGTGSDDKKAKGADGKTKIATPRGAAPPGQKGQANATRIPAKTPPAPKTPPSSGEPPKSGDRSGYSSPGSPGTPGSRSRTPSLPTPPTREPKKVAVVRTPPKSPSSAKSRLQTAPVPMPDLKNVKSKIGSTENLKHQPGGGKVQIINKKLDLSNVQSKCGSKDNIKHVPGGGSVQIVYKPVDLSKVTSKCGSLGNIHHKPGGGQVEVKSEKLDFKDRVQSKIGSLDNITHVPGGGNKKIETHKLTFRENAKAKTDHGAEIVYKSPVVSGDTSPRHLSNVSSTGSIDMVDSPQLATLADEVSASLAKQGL

SMILES | ThT fluorescence intensity (FI), maximum at the plateau phase of α-syn fibrillization (alpha-synuclein (α-syn); α-syn 6.25 μM (molar ratio 1:16), compared with DMSO control, mean±SEM, 100 µM) [%] | tau oligomer formation (PICUP, in words) (tau isoform 2N4R [1]) | inhibition of α-syn aggregation / fibril formation (in words) (alpha-synuclein (α-syn); ThT assay) | α-syn fibril ultrastructure (TEM) (α-syn [2]) | α-syn expression levels (Western blot) ([3]; compound 10 μM) | α-syn expression levels (Western blot) ([3]; compound 2.5 and 20 μM) | α-syn inclusion formation (punctate YFP signal, in words) ([3]; compound 7: 2.5 to 20 μM, compound 10: 2.5 to 40 μM, readout 96 h after plating, vs 0.1% DMSO) | tau isoform 2N4R fibril ultrastructure (TEM) (tau isoform 2N4R [4]) | tau isoform 2N4R fibrillization (in words) (tau isoform 2N4R [5]) | α-syn oligomer formation (PICUP, in words) (α-syn [6]) | activity at 100 µM (alpha-synuclein (α-syn); α-syn 6.25 μM (molar ratio 1:16), compared with DMSO control, mean±SEM, read-out: ThT fluorescence intensity (FI), maximum at the plateau phase of α-syn fibrillization) [%]
Clc1nc(Nc2ccc3cc[nH]c3c2)nc(Nc2ccc3cc[nH]c3c2)n1 [Compound 24] | −0.3±0.5 |  |  |  |  |  |  |  |  |  | 
c1cc(Oc2ncnc(Oc3cccc4[nH]ccc34)n2)c2cc[nH]c2c1 [Compound 7, 4-{[4-(1H-indol-4-yloxy)-1,3,5-triazin-2-yl]oxy}-1H-indole] |  | did not reduce the formation of α-syn and tau oligomers | nonexistent anti-fibrillar activity; also recorded: weak effect on fibril formation | packets of fine fibrils with a few spherical structures encountered on the grid | reduced | reduced | very minimal changes in the numbers of inclusion | fibrils surrounded by debris admixed with disrupted fibrils | failed to reduce tau fibril formation | did not reduce the formation of α-syn and tau oligomers | 
c1cc(Nc2nc(Nc3cccc4[nH]ccc34)nc(Nc3cccc4[nH]ccc34)n2)c2cc[nH]c2c1 [Compound 25] |  |  |  | rare short fibrils |  |  |  | medium size needle-shaped fibrils |  |  | 21.5 ± 7.9
